Converted amounts (≈) assume the structure as drawn. Read-outs that look alike come from different tables or passages of the source.
How the values were obtained:
E. coli [1] = conditions: Journal of the American Chemical Society 2002, 124, 9022-3, cited from earlier work
[2] = cited from earlier work
[3] = tested on: tetracycline resistant E. coli; type: cell-based, Escherichia coli; conditions: for MIC: single agent, Table 5; for MIC (μM) of amphiphile alone: tetracycline resistant E. coli, Tables 6 and 7
Text: (§1) Certain aspects are drawn to a method for increasing or enhancing the antimicrobial activity of an antimicrobial agent. As used herein, the “antimicrobial activity” of an antimicrobial agent is defined as the property of a substance to inhibit the growth and reproduction of a microbial organism or to kill it. Common terms generally applied to bacteria are bacteriostatic (stops growth) and bactericidal (kills bacteria). Depending on the concentrations applied, microbial growth can be slowed or stopped in comparison to concurrent experiments conducted in the absence of an antimicrobial agent. Depending on the concentrations applied, additional microbe death can occur in comparison to concurrent experiments conducted in the absence of an antimicrobial agent. […] The MIC is the lowest concentration of any agent having antimicrobial activity that inhibits the growth of a microorganism as judged by visual inspection. MIC can be determined by inoculating media with the organism and adding the antimicrobial agent diluted successively in half.
(§2) Among the organisms studied are several strains of the bacterium E. coli.
N,N′-Dibenzyl-4,13-diaza-18-crown-6 is referred to in the table as dibenzyldiaza-18-crown-6.
(§3) Minimal Inhibitory Concentration (MIC) Procedure. […] Prepare initial concentration of all the compounds required. • 5. […] Vortex each test tube for 2-3 seconds. • 11.

[4] = tested on: tetracycline resistant E. coli
Protocol: • 1. Steps 1-7, described in the MIC procedure, shown in Example 2, were followed. • 2. While the E. coli grew, the appropriate volume of compound was added to each test tube. • 3. Antibiotics were added at the required volume of solution to obtain the desired concentration in each test tube. […] Each test tube was vortexed for 2-3 seconds. • 5. Steps 10-12 from the MIC procedure, shown in Example 2, were then executed.

S. cerevisiae = experiment: MIC determination, S. cerevisiae (Table 1); type: cell-based, Saccharomyces cerevisiae; conditions: single agent
Text: (§4) Certain aspects are drawn to a method for increasing or enhancing the antimicrobial activity of an antimicrobial agent. As used herein, the “antimicrobial activity” of an antimicrobial agent is defined as the property of a substance to inhibit the growth and reproduction of a microbial organism or to kill it. Common terms generally applied to bacteria are bacteriostatic (stops growth) and bactericidal (kills bacteria). Depending on the concentrations applied, microbial growth can be slowed or stopped in comparison to concurrent experiments conducted in the absence of an antimicrobial agent. Depending on the concentrations applied, additional microbe death can occur in comparison to concurrent experiments conducted in the absence of an antimicrobial agent. The results of minimum inhibitory concentration (MIC) evaluations and growth curves are presented herein and the conditions are specified. The MIC is the lowest concentration of any agent having antimicrobial activity that inhibits the growth of a microorganism as judged by visual inspection. MIC can be determined by inoculating media with the organism and adding the antimicrobial agent diluted successively in half. […] Reference herein to increasing or enhancing activity, efficacy, potency, and the like are used interchangeably to mean that when the synthetic amphiphile is present, the ability of the antimicrobial agent to inhibit the growth of or to kill an organism will be manifested at a concentration lower than would be required to achieve the same results in the absence of said synthetic amphiphile.
(§5) Among the organisms studied are several strains of the bacterium E. coli. […] Experiments were conducted to determine the MIC values for the synthetic amphiphiles known as lariat ethers according to the procedures described in Antimicrobial M07-A9: Methods for Dilution Antimicrobial Susceptibility Tests for Bacteria that Grow Aerobically; Clinical and Laboratory Standards Institute, 2012; Vol. 32, 67 pp. MIC values so determined for several lariat ethers and for several antibiotics are shown in Table 1.

K-12 E. coli [5] = experiment: Combination of amphiphile and antibiotic against K-12 E. coli
Protocol: (§6) Steps 1-7, described in the MIC procedure, shown in Example 2, were followed. • 2. While the E. coli grew, the appropriate volume of compound was added to each test tube. • 3. Antibiotics were added at the required volume of solution to obtain the desired concentration in each test tube. […] Each test tube was vortexed for 2-3 seconds. • 5. Steps 10-12 from the MIC procedure, shown in Example 2, were then executed.

DH5α E. coli [6] = experiment: MIC of single agents against DH5α E. coli; type: cell-based, Escherichia coli; conditions: for MIC (μM) of lariat ether alone: DH5α E. coli, Tables 2 and 3; for MIC to DH5α E. coli: single agent, values of the running text
Text: as §1, §2, §3

DH5α E. coli [7] = experiment: Combination of lariat ether and antibiotic against DH5α E. coli; conditions: 0.4 vol-% DMSO
Protocol: The volume of water added was between 12 to 0.5 μL. The volume of water added was not constant but the volume of media was changed so that the total volume was kept constant at 2 mL.
as §6

K-12 E. coli [8] = experiment: MIC of single agents against K-12 E. coli
B. stubtilis = experiment: MIC determination, B. subtilis (Table 1); type: cell-based, Bacillus subtilis; conditions: single agent
Text: as §4, §5

HEK-293 cells = experiment: MTT assay of toxicity to HEK-293 cells
Protocol: The toxicity of C6. C8, C10. C11 and C14 lariat ethers to HEK-293 cells was determined by using an MTT assay. […] The abscissa is a logarithmic scale for the concentrations ranging from 1 μM to 1000 μM (1 mM) used in the experiment. The ordinate represents percent survival of HEK-293 cells.
Growth medium containing DMEM with high glucose (ATCC). 10% fetal bovine serum (FBS: Sigma-Aldrich) and 10 μg/mL of blasticidin (Thermo-Fischer) was prepared. HEK 293 cells were thawed out from cryo-preserved samples in 10 mL growth media, centrifuged at 500 rpm for 10 minutes to remove preservative. The cells were then resuspended in fresh growth medium and cultured using a T-75 flask (Thermo-Fischer) at 37° C. and 5% CO2. Cells were monitored for confluence and growth medium was replaced every 48 h, until cells were placed onto a 96-well plate for toxicity studies.
After reaching 80-90% confluence, cells were trypsinized and suspended in media containing DMEM and 10% FBS (no antibiotics). The cells were counted on a hemacytometer and plated at a density of 20,000 cells per well in a 96-well plate and grown for 24 hours to reach 60-70% confluence. DMSO stocks of C6, C8, C10, C11 and C14 diaza-18-crown-6 lariat ethers were prepared at […] and diluted 1:10 to get working concentrations of 20 mM, 2 mM, and 0.2 mM. Each stock was further diluted […] into DMEM supplemented with 10% FBS to get final concentrations of 1 mM, 0.1 mM, 0.01 mM (10 μM) and 0.001 mM (1 μM). The original media was then removed from the cells and replaced with 200 μL media containing the desired concentration of compound. Three wells were used for each concentration providing experimental triplicates. […] The absorbance was measured at 570 nm and nonspecific absorbance was corrected at 650 nm, using SpectraMax340 micro plate reader.
The experiment was performed in triplicate and the average of percent survival of three experiments was determined. […] The lethal dose 50 (LD50) for each compound was calculated by using the equation for a logarithmic regression curve.

E. coli [9] = experiment: MIC determination, E. coli (Table 1); type: cell-based, Escherichia coli; conditions: single agent
Text: as §1, §2, §3

DH5α E. coli [10] = experiment: Inhibitory concentration (IC50) to DH5α E. coli cells (FIG. 4); type: cell-based, Escherichia coli; conditions: DH5α E. coli, FIG. 4
Text: Two commonly used abbreviations are LD50 and IC50. The former is the concentration of an agent that comprises a lethal dose to 50% of the organism under study. The latter is the concentration of agent that inhibits growth of 50% of the organism under study. […] The abscissa represents the number of (CH2) groups in spacer chains. The ordinate is logarithmic and reflects the concentrations (in μM) of the various lariat ethers used.

Compound	MIC [3]	MIC (μM) of amphiphile alone [3]	MIC (μM) S. cerevisiae (S. cerevisiae)	MIC (μM) of lariat ether alone (DH5α E. coli [6])	MIC to DH5α E. coli (DH5α E. coli [6])	MIC (μM) of amphiphile alone (K-12 E. coli [8])	MIC (μM) B. stubtilis (B. stubtilis)	LD50 to HEK-293 (HEK-293 cells)	MIC (E. coli [9])	IC50 (DH5α E. coli [10])	further results
c1ccc(CN2CCOCCOCCN(CCCCCCCCN3CCOCCOCCN(CCCCCCCCN4CCOCCOCCN(Cc5ccccc5)CCOCCOCC4)CCOCCOCC3)CCOCCOCC2)cc1 [C8 hydraphile]	250 ± 10 µM (≈ 297 µg/mL)	250 µM									toxicity to E. coli (E. coli [1]; listed as C8 benzyl hydraphile): did not; toxicity to E. coli (E. coli [1]; listed as hydraphile having —(CH2)8— spacers): did not exhibit toxicity; cation transport in liposome membranes ([2]; DMPC, DOPC, or DEPC membranes): failed to transport
CCCCCCCCCCCN1CCOCCOCCN(CCCCCCCCCCC)CCOCCOCC1 [C11 lariat ether, N,N′-di-n-undecyl-4,13-diaza-18-crown-6]	24 µM (≈ 13.7 µg/mL)	24 µM	1.5 µM (≈ 0.856 µg/mL)	24 µM	24 µM	24 µM	9 µM (≈ 5.14 µg/mL)	22 µM	24 µM (≈ 13.7 µg/mL)	12 µM	Fold Enhancement ([4]; Tetracycline with 8 μM C11 lariat ether): 5 fold; Fold Enhancement ([4]; Tetracycline with 12 μM C11 lariat ether): 10 fold; Fold Enhancement ([4]; Tetracycline with 16 μM C11 lariat ether): 10 fold; Fold Enhancement ([4]; Tetracycline with 18 μM C11 lariat ether): 10 fold; Fold Enhancement (K-12 E. coli [5]; Rifampicin with 6 μM C11 lariat ether): 2 fold; Fold Enhancement (K-12 E. coli [5]; Tetracycline with 6 μM C11 lariat ether): ~2 fold; Fold Enhancement (DH5α E. coli [7]; rifampicin with 8 μM n-C11 lariat ether): 4 fold; Fold Enhancement (DH5α E. coli [7]; rifampicin with 12 μM n-C11 lariat ether): 10 fold; Fold Enhancement (DH5α E. coli [7]; rifampicin with 16 μM n-C11 lariat ether): 10 fold; Fold Enhancement (DH5α E. coli [7]; rifampicin with 18 μM n-C11 lariat ether): 20 fold; Fold Enhancement (DH5α E. coli [7]; tetracycline with 4 μM n-C11 lariat ether): 4 fold; Fold Enhancement (DH5α E. coli [7]; tetracycline with 12 μM n-C11 lariat ether): 12 fold; Fold Enhancement (DH5α E. coli [7]; tetracycline with 16 μM n-C11 lariat ether): 48 fold; Fold Enhancement (DH5α E. coli [7]; tetracycline with 18 μM n-C11 lariat ether): 8 fold
N,N′-di-n-octyl-4,13-diaza-18-crown-6 [C8 lariat ether]	120 µM	120 µM	25 µM	>120 µM	> 240 µM	300 µM	105 µM	33 µM	120 µM	150 µM	MIC to DH5α E. coli (DH5α E. coli [6]; listed as C8 Lariat): 120 µM
c1ccc(CN2CCOCCOCCN(CCCCCCCCCCN3CCOCCOCCN(CCCCCCCCCCN4CCOCCOCCN(Cc5ccccc5)CCOCCOCC4)CCOCCOCC3)CCOCCOCC2)cc1	35 ± 5 µM (≈ 43.5 µg/mL)	35 µM									cation transport in liposome membranes ([2]; thickest DEPC membranes): nearly inactive
N,N′-di-n-decyl-4,13-diaza-18-crown-6 [C10 lariat ether]	16 µM	16 µM	2.8 µM		12 µM	12 µM	2.8 µM		11 µM		toxicity to HEK-293, rank among lariat ethers (HEK-293 cells; C6 to C14 lariat ethers compared): highest toxicity

From patent US10791740B2, “Enhancement of antibiotic efficacy” (priority 2014, dated 2020)
